# Source: ChEMBL document CHEMBL3885861, “Open TG-GATES”
# Species: Rattus norvegicus
# Test: Open TG-GATES - Regimen: Daily Repeat
# Format: toxicity, organism-based, Sprague-Dawley
# Design: regimen Daily Repeat, gender Male, age 6 weeks
# Details: in vivo, iv, route intravenous injection; for KIDNEY_L / KIDNEY_R / KIDNEY_TOTAL: tissue Kidney; for LIVER: tissue Liver
# [1] = 0 mg/kg, 72 h, dose level Control, time 3 day
# [2] = 0 mg/kg, 72 h, tissue Blood, dose level Control, time 3 day
# [3] = 0 mg/kg, 72 h, tissue Plasma, dose level Control, time 3 day
# [4] = 0 mg/kg, […], dose level Control, time 7 day
# [5] = 0 mg/kg, […], dose level Control, time 14 day
# [6] = 0 mg/kg, […], dose level Control, time 28 day
# [7] = 0 mg/kg, […], tissue Blood, dose level Control, time 7 day
# [8] = 0 mg/kg, […], tissue Blood, dose level Control, time 14 day
# [9] = 0 mg/kg, […], tissue Blood, dose level Control, time 28 day
# [10] = 0 mg/kg, […], tissue Plasma, dose level Control, time 7 day
# [11] = 0 mg/kg, […], tissue Plasma, dose level Control, time 14 day
# [12] = 0 mg/kg, […], tissue Plasma, dose level Control, time 28 day
# [13] = 1 mg/kg, 72 h, tissue Blood, dose level High, time 3 day
# [14] = 1 mg/kg, 72 h, dose level High, time 3 day
# [15] = 1 mg/kg, 72 h, tissue Plasma, dose level High, time 3 day
# [16] = 1 mg/kg, […], dose level High, time 7 day
# [17] = 1 mg/kg, […], dose level High, time 14 day
# [18] = 1 mg/kg, […], dose level High, time 28 day
# [19] = 1 mg/kg, […], tissue Blood, dose level High, time 7 day
# [20] = 1 mg/kg, […], tissue Blood, dose level High, time 14 day
# [21] = 1 mg/kg, […], tissue Blood, dose level High, time 28 day
# [22] = 1 mg/kg, […], tissue Plasma, dose level High, time 7 day
# [23] = 1 mg/kg, […], tissue Plasma, dose level High, time 14 day
# [24] = 1 mg/kg, […], tissue Plasma, dose level High, time 28 day
sequence,measurement,setting,value
CISPLATIN,TERMINAL_BW,[1],225.2 g
same,APTT,[2],23.7 s
same,Bas,[2],0%
same,Eos,[2],1%
same,Fbg,[2],289.6 mg/dL
same,Hb,[2],12.9 g/dL
same,Ht,[2],39.8%
same,Lym,[2],80.8%
same,MCV,[2],63 fL
same,Mono,[2],2.6%
same,Plat,[2],132.8 x10_4/uL
same,RBC,[2],631.8 x10_4/ul
same,Ret,[2],5.8%
same,WBC,[2],106.8 x10_2/uL
same,KIDNEY_L,[1],1 g
same,KIDNEY_R,[1],1 g
same,KIDNEY_TOTAL,[1],1.9 g
same,ALP,[3],1659.4 IU/L
same,ALT,[3],40.4 IU/L
same,BUN,[3],16.2 mg/dL
same,CRE,[3],0.2 mg/dL
same,DBIL,[3],0 mg/dL
same,GLC,[3],196.6 mg/dL
same,IP,[3],6.7 mg/dL
same,K,[3],4.2 meq/L
same,LDH,[3],219.6 IU/L
same,PL,[3],136 mg/dL
same,RALB,[3],2.9 g/dL
same,TBIL,[3],0.004 mg/dL
same,TC,[3],69.4 mg/dL
same,TG,[3],113.4 mg/dL
same,TP,[3],5.4 g/dL
same,gamma-GTP,[3],1.6 IU/L
same,TERMINAL_BW,[4],261.4 g
same,TERMINAL_BW,[5],291.7 g
same,TERMINAL_BW,[6],381.4 g
same,APTT,[7],24.4 s
same,Bas,[7],0%
same,Eos,[7],1%
same,Fbg,[7],309.2 mg/dL
same,Ht,[7],40.3%
same,Lym,[7],80%
same,MCHC,[7],32.7%
same,MCV,[7],63.8 fL
same,Mono,[7],2.4%
same,PT,[7],16.1 s
same,Plat,[7],128.5 x10_4/uL
same,RBC,[7],632.6 x10_4/ul
same,Ret,[7],5.5%
same,WBC,[7],155.9 x10_2/uL
same,APTT,[8],23.9 s
same,Bas,[8],0%
same,Eos,[8],0.8%
same,Fbg,[8],345.4 mg/dL
same,Ht,[8],41.9%
same,Lym,[8],80.8%
same,MCHC,[8],33%
same,MCV,[8],60.9 fL
same,Mono,[8],2.8%
same,PT,[8],15.9 s
same,Plat,[8],117.5 x10_4/uL
same,RBC,[8],688.8 x10_4/ul
same,Ret,[8],3.8%
same,WBC,[8],116.1 x10_2/uL
same,APTT,[9],24.5 s
same,Bas,[9],0%
same,Eos,[9],1.2%
same,Fbg,[9],311.4 mg/dL
same,Hb,[9],14.6 g/dL
same,Ht,[9],42.7%
same,Lym,[9],81.4%
same,MCHC,[9],34.1%
same,MCV,[9],56.4 fL
same,Mono,[9],3%
same,PT,[9],16 s
same,Plat,[9],104.7 x10_4/uL
same,RBC,[9],757.6 x10_4/ul
same,Ret,[9],2.2%
same,WBC,[9],114.2 x10_2/uL
same,KIDNEY_L,[4],1.1 g
same,KIDNEY_R,[4],1.1 g
same,KIDNEY_TOTAL,[4],2.2 g
same,KIDNEY_L,[5],1.2 g
same,KIDNEY_R,[5],1.2 g
same,KIDNEY_TOTAL,[5],2.3 g
same,KIDNEY_L,[6],1.3 g
same,KIDNEY_R,[6],1.3 g
same,KIDNEY_TOTAL,[6],2.7 g
same,LIVER,[4],12.3 g
same,LIVER,[6],15.5 g
same,ALP,[10],1680.4 IU/L
same,ALT,[10],40.2 IU/L
same,BUN,[10],17.6 mg/dL
same,CRE,[10],0.2 mg/dL
same,DBIL,[10],0 mg/dL
same,IP,[10],7.2 mg/dL
same,K,[10],4.3 meq/L
same,LDH,[10],185.6 IU/L
same,PL,[10],135.8 mg/dL
same,RALB,[10],2.9 g/dL
same,TBIL,[10],0.002 mg/dL
same,TC,[10],69.2 mg/dL
same,TG,[10],124.6 mg/dL
same,TP,[10],5.4 g/dL
same,gamma-GTP,[10],2.2 IU/L
same,ALP,[11],1400.6 IU/L
same,ALT,[11],41.2 IU/L
same,AST,[11],81.4 IU/L
same,BUN,[11],19 mg/dL
same,CRE,[11],0.2 mg/dL
same,DBIL,[11],0 mg/dL
same,GLC,[11],182.2 mg/dL
same,IP,[11],7.2 mg/dL
same,K,[11],4.3 meq/L
same,LDH,[11],164.4 IU/L
same,PL,[11],146.8 mg/dL
same,RALB,[11],3.1 g/dL
same,TBIL,[11],0.002 mg/dL
same,TC,[11],70.4 mg/dL
same,TG,[11],117.6 mg/dL
same,TP,[11],5.8 g/dL
same,gamma-GTP,[11],1.8 IU/L
same,ALP,[12],1048.2 IU/L
same,ALT,[12],37.8 IU/L
same,AST,[12],65.2 IU/L
same,BUN,[12],19.2 mg/dL
same,CRE,[12],0.2 mg/dL
same,DBIL,[12],0 mg/dL
same,GLC,[12],196.6 mg/dL
same,IP,[12],6.4 mg/dL
same,K,[12],4.2 meq/L
same,LDH,[12],130.2 IU/L
same,RALB,[12],3.1 g/dL
same,TBIL,[12],0.004 mg/dL
same,TC,[12],74.2 mg/dL
same,TG,[12],141.8 mg/dL
same,TP,[12],6 g/dL
same,gamma-GTP,[12],2.8 IU/L
same,APTT,[13],23.7 s
same,Bas,[13],0%
same,Eos,[13],1%
same,Fbg,[13],288.4 mg/dL
same,Ht,[13],40.9%
same,Lym,[13],87%
same,MCHC,[13],33%
same,MCV,[13],61.4 fL
same,Mono,[13],2.2%
same,Neu,[13],9%
same,PT,[13],15.7 s
same,Plat,[13],137 x10_4/uL
same,RBC,[13],667 x10_4/ul
same,Ret,[13],2.5%
same,WBC,[13],69.2 x10_2/uL
same,KIDNEY_L,[14],0.9 g
same,KIDNEY_R,[14],1 g
same,KIDNEY_TOTAL,[14],1.9 g
same,LIVER,[14],8.7 g
same,ALP,[15],1528.2 IU/L
same,AST,[15],75.8 IU/L
same,CRE,[15],0.2 mg/dL
same,Ca,[15],11 mg/dL
same,DBIL,[15],0.002 mg/dL
same,GLC,[15],180.8 mg/dL
same,IP,[15],7.3 mg/dL
same,K,[15],4.3 meq/L
same,LDH,[15],270.4 IU/L
same,PL,[15],132.6 mg/dL
same,RALB,[15],3.1 g/dL
same,TBIL,[15],0.026 mg/dL
same,TG,[15],54.8 mg/dL
same,TP,[15],5.6 g/dL
same,gamma-GTP,[15],1.4 IU/L
same,TERMINAL_BW,[16],219.4 g
same,TERMINAL_BW,[17],226 g
same,TERMINAL_BW,[18],172 g
same,APTT,[19],27.5 s
same,Bas,[19],0%
same,Eos,[19],0.8%
same,Fbg,[19],299.8 mg/dL
same,Hb,[19],14.3 g/dL
same,Ht,[19],42.4%
same,Lym,[19],82.8%
same,MCHC,[19],33.6%
same,MCV,[19],59.8 fL
same,Mono,[19],3.6%
same,Neu,[19],11.4%
same,PT,[19],16 s
same,Plat,[19],136.4 x10_4/uL
same,RBC,[19],708.8 x10_4/ul
same,Ret,[19],1%
same,WBC,[19],54.2 x10_2/uL
same,APTT,[20],26.8 s
same,Bas,[20],0%
same,Eos,[20],0.4%
same,Fbg,[20],276.4 mg/dL
same,Hb,[20],14.9 g/dL
same,Ht,[20],43.4%
same,Lym,[20],80.8%
same,MCHC,[20],34.3%
same,MCV,[20],58.8 fL
same,Mono,[20],4%
same,Neu,[20],13.4%
same,PT,[20],15.3 s
same,Plat,[20],68.4 x10_4/uL
same,RBC,[20],739 x10_4/ul
same,Ret,[20],0.4%
same,WBC,[20],50.8 x10_2/uL
same,APTT,[21],17.9 s
same,Bas,[21],0%
same,Eos,[21],0%
same,Fbg,[21],270 mg/dL
same,Hb,[21],12.1 g/dL
same,Ht,[21],33%
same,Lym,[21],77%
same,MCH,[21],18.5 pg
same,MCHC,[21],36.7%
same,MCV,[21],50.5 fL
same,Mono,[21],3%
same,Neu,[21],20%
same,PT,[21],16.9 s
same,Plat,[21],3.1 x10_4/uL
same,RBC,[21],653 x10_4/ul
same,Ret,[21],0.1%
same,WBC,[21],32.4 x10_2/uL
same,KIDNEY_L,[16],1 g
same,KIDNEY_R,[16],1 g
same,KIDNEY_TOTAL,[16],2 g
same,KIDNEY_L,[17],1.3 g
same,KIDNEY_R,[17],1.3 g
same,KIDNEY_TOTAL,[17],2.6 g
same,KIDNEY_L,[18],2.8 g
same,KIDNEY_R,[18],2.8 g
same,KIDNEY_TOTAL,[18],5.6 g
same,LIVER,[16],10 g
same,LIVER,[17],8.8 g
same,LIVER,[18],6.8 g
same,ALP,[22],1309.4 IU/L
same,ALT,[22],31.2 IU/L
same,AST,[22],79 IU/L
same,BUN,[22],18.4 mg/dL
same,CRE,[22],0.2 mg/dL
same,DBIL,[22],0.002 mg/dL
same,GLC,[22],170.8 mg/dL
same,IP,[22],5.9 mg/dL
same,K,[22],4.1 meq/L
same,LDH,[22],247.4 IU/L
same,PL,[22],118.8 mg/dL
same,RALB,[22],3.2 g/dL
same,TBIL,[22],0.02 mg/dL
same,TC,[22],63.4 mg/dL
same,TG,[22],64.2 mg/dL
same,TP,[22],5.8 g/dL
same,gamma-GTP,[22],1.6 IU/L
same,ALP,[23],720.4 IU/L
same,ALT,[23],37.6 IU/L
same,AST,[23],102.8 IU/L
same,BUN,[23],42.2 mg/dL
same,CRE,[23],0.5 mg/dL
same,DBIL,[23],0.002 mg/dL
same,GLC,[23],165.8 mg/dL
same,IP,[23],5.5 mg/dL
same,K,[23],4.2 meq/L
same,LDH,[23],248.4 IU/L
same,PL,[23],134.8 mg/dL
same,RALB,[23],3.1 g/dL
same,TBIL,[23],0.006 mg/dL
same,TC,[23],86 mg/dL
same,TG,[23],43 mg/dL
same,TP,[23],5.8 g/dL
same,gamma-GTP,[23],3.8 IU/L
same,ALP,[24],311 IU/L
same,ALT,[24],47 IU/L
same,AST,[24],125 IU/L
same,BUN,[24],332 mg/dL
same,CRE,[24],3.6 mg/dL
same,Ca,[24],9.1 mg/dL
same,Cl,[24],93 meq/L
same,DBIL,[24],0.01 mg/dL
same,GLC,[24],210 mg/dL
same,IP,[24],11.7 mg/dL
same,K,[24],5.4 meq/L
same,LDH,[24],2660 IU/L
same,Na,[24],129 meq/L
same,PL,[24],140 mg/dL
same,RALB,[24],2.3 g/dL
same,TBIL,[24],0 mg/dL
same,TC,[24],77 mg/dL
same,TG,[24],91 mg/dL
same,TP,[24],4.5 g/dL
same,gamma-GTP,[24],2 IU/L
